Test results reported in patent publication US20240352066A1, “ANTIMICROBIAL COMPOUNDS AND THE METHOD OF USE” (priority 2021, published 2024).
In brackets after ≈: the same amount, converted by molar mass. Read-outs that look alike come from different tables or passages of the source. Where a SMILES comes first, the peptide text is derived from it. [ ]: non-standard residue; d: D form. The star is where a group is joined. Gly(N(CH2)2(3-indolyl)) = O=C(O)CNCCc1c[nH]c2ccccc12; Gly(Nα-4-Cl-benzyl) = O=C(O)CNCc1ccc(Cl)cc1; N(4-Br-benzyl)Gly = O=C(O)CNCc1ccc(Br)cc1; N(2-thienylmethyl)Gly = O=C(O)CNCc1cccs1; N(tridecyl)Gly = CCCCCCCCCCCCCNCC(=O)O; NBzl(4-I)Gly = O=C(O)CNCc1ccc(I)cc1; Gly(N-2-aminoethyl) = NCCNCC(=O)O; NFurfurylGly = O=C(O)CNCc1ccco1; X2 = CCCCCCCCN(CCCCCCCC)CC(=O)*; Gly(N-cHex) = O=C(O)CNC1CCCCC1; X1 = CCCCCCN(CCCCCC)CC(=O)*; Nphe = O=C(O)CNCc1ccccc1; Nlys = NCCCCNCC(=O)O; Sar = CNCC(=O)O

Tests used:
C. neoformans [1] = test: microbe, parasite or virus in culture; assay type: cell-based, Cryptococcus neoformans
Description: Cell solution was diluted into RPMI-MOPS (1:100) followed by another dilution into RPMI-MOPS (1:20). […] Plates were incubated for 72 hours at 35° C. MIC was determined as the lowest concentration of individual compound or combined compounds inhibiting pathogen growth. Fractional inhibitory concentration index (FICi) was determine using the following equation: FICi values were interpreted as follows: FICi<0.5 synergistic; 0.5≤FICi≤4 indifferent; FICi>4 antagonist (Johnson et al., Antimicrob. Agents Chemother. 48, 693-715 (2004)).

[2] = Mammalian cytotoxicity, MTT, HepG2; assay type: cell-based, human; details: human, HepG2 hepatocellular carcinoma cells
Description: Hepatocellular carcinoma (HepG2), mouse fibroblast (3T3), human lung (HPL1A), and human keratinocyte (HaCat) cells were cultured in Dulbecco modified eagle media (DMEM) containing 10% fetal bovine serum (FBS) and 1% penicillin, streptomycin, and glutamine (PSG) at 37° C. and 5% CO2. Cells were collected and adjusted to […] to 4×10^5 cells/mL in phenol-red free DMEM and plated (100 μL) 96 well plates. 2-fold serial dilutions of 10× peptoid (11.1 μL) were added to each well in triplicate. Water (vehicle) was used as a negative control. Plates were incubated at 37° C. in 5% CO2 for 72 hours. Thiazolyl blue tetrazolium bromide (MTT) was added to each well (5 mg/mL; 20 μL) and incubated for 3 hours. Media was removed, DMSO (100 μL) was added, and plates were incubated at 37° C. for 10 minutes. Plates were read on a SpectraMax M5 plate reader (Abs. 570 nm). The concentration of compound resulting in a 50% reduction in growth compared to control (toxicity dose 50%; TD50) was determined using GraFit. This procedure was repeated three times on separate days.
Cytotoxicity against HepG2 hepatocellular carcinoma cells was done as previously described (Green et al. ACS infectious diseases, (2022); Corson et al. ACS medicinal chemistry letters 7 12, 1139-1144 (2016)). HepG2 cells were maintained in culture in T-75 flasks using Dulbecco's Modified Eagle's Media (DMEM) with phenol red pH indicator and supplemented with 10% fetal bovine serum (FBS) and 1% penicillin, streptomycin, and glutamine (PSG). The cells were incubated at 37° C. and 5% CO2 in a humidified incubator until desired confluency was achieved. The media was removed from the flask, and the cells were washed 1× with 10 mL of phosphate-buffered saline (PBS; 11.8 mM phosphate, 140.4 mM NaCl; pH 7.4) which was then discarded. To remove the adhered cells from the flask, 2 mL of trypsin was added, and the cells were incubated for 10 minutes. To quench the trypsin, 8 mL of phenol red-free DMEM with 10% FBS and 1% PGS was added, and the cell solution was transferred to a 15 mL conical tube. After the cells were pelleted by centrifugation at 1000 rpm for 5 minutes, the supernatant was poured off and cells resuspended in the volume of phenol red-free media needed for the assay. Cell concentration was determined by counting with a hemocytometer, and the solution was diluted with media until a concentration of 1×10^5 cells/mL was achieved. A 100 μL aliquot of cell solution was added to each well of a 96-well plate, apart from the 3 wells used for a media control. Cells were incubated for 2-3 hours at 37° C. and 5% CO2 until cells were adherent.
Compound stocks of 20 mg/mL were used to prepare 2-fold serial dilutions of each compound in sterile water, giving final concentrations of 200, 100, 50, 25, 12.5, 6.25, 3.13 and 1.56 μg/mL. 11.1 μL of prepared compound solutions was added to the appropriate wells in triplicate. A negative vehicle control of sterile water, as well as the aforementioned media control, were used. The plates were incubated for 72 hours at 37° C. and 5% CO2. After incubation, 20 μL of 5 mg/mL 3-(4,5-dimethylthiazol-2-yl)-2,5-diphenyltetrazolium bromide (MTT) in water was added to each well. The plate was incubated for 3 hours at 37° C. and 5% CO2. Media was removed from each well using a sterile glass Pasteur pipette. 100 μL of DMSO was added to each well and incubated for 15 minutes at 37° C. Absorbance was read at 570 nm using a SpectraMax M5 Plate Reader. This MTT assay was performed in biological duplicate unless discrepant results were observed. If this was the case, the assay was performed in biological triplicate for further verification. The reported value is the average of biological replicates with standard deviation.

C. neoformans [3] = assay type: cell-based, Cryptococcus neoformans; details: 72 h
Description: The minimum inhibitory concentration (MIC) of peptoids against fungal pathogens C. albicans and C. neoformans was determined following CLSI guidelines (CLSI. Reference method for broth dilution antifungal susceptibility testing of yeasts; approved standard-third edition; CLSI document M27-A3. (Clinical and Laboratory Standards Institute, 2008). […] This inoculant was diluted 1:100 into RPMI-MOPS and then further diluted 1:20 into RPMI-MOPS. 198 μL of inoculant was seeded into each well of a 96 well black-walled plate. 2-fold serial dilutions of 100× peptoid solutions were prepared in water and 2 μL of peptoid were added to each well in triplicate. […] MIC was defined as the lowest concentration of compound preventing fungal growth. This assay was repeated 3 times on separate days with each compound. […] The addition of 0.1 mL cell solution to 9.9 mL of RPMI-MOPS produced a 1:100 cell solution. After vortexing, 0.5 mL of the […] was added to 9.5 mL RPMI-MOPS to produce a 1:20 cell solution. 198 μL of the 1:20 solution was added to the wells of an opaque 96-well plate, apart from the wells designated for the medial control. […] Amphotericin B was used as a positive control, and sterile water was used for the vehicle control. The plates were incubated for 72 hours at 35° C. After incubation, the concentration of compound resulting in no visual growth was recorded as the MIC. All assays performed in biological triplicate on different days.

SMILES	C. neoformans MIC (C. neoformans [3]) [µg/mL]	CC50 at 72 h [2] [µg/mL]	further results
C[C@@H]1[C@H](O)[C@@H](C)/C=C/C=C/C=C/C=C/C=C/C=C/C=C/[C@H](O[C@@H]2O[C@H](C)[C@@H](O)[C@H](N)[C@@H]2O)C[C@@H]2O[C@](O)(C[C@@H](O)C[C@@H](O)[C@H](O)CC[C@@H](O)C[C@@H](O)CC(=O)O[C@H]1C)C[C@H](O)[C@H]2C(=O)O [Amphotericin B]			interpretation of combination with RMG8-8 (C. neoformans [1]; FICi<0.5 synergistic, 0.5≤FICi≤4 indifferent, FICi>4 antagonist): mild additive effect; Combination MIC RMG8-8:Drug, RMG8-8 part (C. neoformans [1]; RMG8-8 concentration in combination with the named drug): 0.8 µg/mL; MIC (compound alone) (C. neoformans [1]; checkerboard, 72 hours at 35° C.): 0.25 µg/mL; Combination MIC RMG8-8:Drug, Drug part (C. neoformans [1]; drug concentration in combination with RMG8-8): 0.06 µg/mL; FICi (C. neoformans [1]; named drug in combination with RMG8-8): 0.75
CCCCCCN(CCCCCC)CC(=O)N(CC(=O)N(CCCCN)CC(=O)N(CCN)CC(=O)N(CC(N)=O)C1CCCCC1)C1CCCCC1 [Compound 6] (X1-[Gly(N-cHex)][Nlys][Gly(N-2-aminoethyl)][Gly(N-cHex)]-NH2)	100		CC50 at 72 h ([2]; Example 2, 72 hours, MTT, read-out: HepG2 TD50): > 200 µg/mL
CCCCCCCCCCCCCNCC(=O)N(CC(=O)N(CCCCN)CC(=O)N(CCN)CC(=O)N(CC(N)=O)Cc1ccccc1)Cc1ccccc1 [Compound 15] (H-[N(tridecyl)Gly][Nphe][Nlys][Gly(N-2-aminoethyl)][Nphe]-NH2)	1.56 to 3.13	145 ± 96 (≈ 186 µM)	
CCCCCCCCCCCCCNCC(=O)N(CC(=O)N(CCCCN)CC(=O)N(CCN)CC(=O)N(CC(N)=O)Cc1ccc(Cl)cc1)Cc1ccc(Cl)cc1 [Compound 18] (H-[N(tridecyl)Gly][Gly(Nα-4-Cl-benzyl)][Nlys][Gly(N-2-aminoethyl)][Gly(Nα-4-Cl-benzyl)]-NH2)	3.13	71.8 ± 24 (≈ 84.7 µM)	
CCCCCCCCCCCCCNCC(=O)N(CC(=O)N(CCCCN)CC(=O)N(CCN)CC(=O)N(CC(N)=O)Cc1ccc(Br)cc1)Cc1ccc(Br)cc1 [Compound 19] (H-[N(tridecyl)Gly][N(4-Br-benzyl)Gly][Nlys][Gly(N-2-aminoethyl)][N(4-Br-benzyl)Gly]-NH2)	3.13	72.4 ± 20 (≈ 77.3 µM)	
CCCCCCCCCCCCCNCC(=O)N(CC(=O)N(CCCCN)CC(=O)N(CCN)CC(=O)N(CC(N)=O)Cc1ccc(I)cc1)Cc1ccc(I)cc1 [Compound 20] (H-[N(tridecyl)Gly][NBzl(4-I)Gly][Nlys][Gly(N-2-aminoethyl)][NBzl(4-I)Gly]-NH2)	6.25	72.2 ± 24 (≈ 70 µM)	
CCCCCCCCCCCCCNCC(=O)N(CC(=O)N(CCCCN)CC(=O)N(CCN)CC(=O)N(CC(N)=O)c1cccc2ccccc12)c1cccc2ccccc12 [Compound 21]	6.25	118 ± 19 (≈ 139 µM)	
CCCCCCCCCCCCCNCC(=O)N(CCc1c[nH]c2ccccc12)CC(=O)N(CCCCN)CC(=O)N(CCN)CC(=O)N(CCc1c[nH]c2ccccc12)CC(N)=O [Compound 23] (H-[N(tridecyl)Gly][Gly(N(CH2)2(3-indolyl))][Nlys][Gly(N-2-aminoethyl)][Gly(N(CH2)2(3-indolyl))]-NH2)	1.56 to 3.13	85 ± 10 (≈ 96 µM)	
CNCC(=O)N(CC(=O)N(CCCCN)CC(=O)N(CCN)CC(=O)N(CC(N)=O)C1CCCCC1)C1CCCCC1 [Position 1] (H-[Sar][Gly(N-cHex)][Nlys][Gly(N-2-aminoethyl)][Gly(N-cHex)]-NH2)		> 200	MIC C. neoformans (C. neoformans [3]): >50.00 µg/mL
CCCCCCCCCCCCCNCC(=O)N(C)CC(=O)N(CCCCN)CC(=O)N(CCN)CC(=O)N(CC(N)=O)C1CCCCC1 [Position 2] (H-[N(tridecyl)Gly][Sar][Nlys][Gly(N-2-aminoethyl)][Gly(N-cHex)]-NH2)		> 200	MIC C. neoformans (C. neoformans [3]): 6.25 µg/mL (≈ 8.99 µM)
CCCCCCCCCCCCCNCC(=O)N(CC(=O)N(C)CC(=O)N(CCN)CC(=O)N(CC(N)=O)C1CCCCC1)C1CCCCC1 [Position 3]		83 (≈ 118 µM)	MIC C. neoformans (C. neoformans [3]): 3.13 µg/mL (≈ 4.43 µM)
CCCCCCCCCCCCCNCC(=O)N(CC(=O)N(CCCCN)CC(=O)N(C)CC(=O)N(CC(N)=O)C1CCCCC1)C1CCCCC1 [Position 4] (H-[N(tridecyl)Gly][Gly(N-cHex)][Nlys][Sar][Gly(N-cHex)]-NH2)		84 (≈ 114 µM)	MIC C. neoformans (C. neoformans [3]): 3.13 µg/mL (≈ 4.26 µM)
CCCCCCCCCCCCCNCC(=O)N(CC(=O)N(CCCCN)CC(=O)N(CCN)CC(=O)N(C)CC(N)=O)C1CCCCC1 [Position 5] (H-[N(tridecyl)Gly][Gly(N-cHex)][Nlys][Gly(N-2-aminoethyl)][Sar]-NH2)		> 200	MIC C. neoformans (C. neoformans [3]): 6.25 µg/mL (≈ 8.99 µM)

Now from value to compound, other results behind:

C. neoformans MIC (C. neoformans [3]) [µg/mL]	SMILES	CC50 at 72 h [2] [µg/mL]	further results
3.13	CCCCCCCCCCCCCNCC(=O)N(CC(=O)N(CCCCN)CC(=O)N(CCCCN)CC(=O)N(CC(N)=O)C1CCCCC1)C1CCCCC1 [Compound 2] (H-[N(tridecyl)Gly][Gly(N-cHex)][Nlys][Nlys][Gly(N-cHex)]-NH2)	165 ± 97 (≈ 208 µM)	
6.25	CCCCCCCCN(CCCCCCCC)CC(=O)N(CC(=O)N(CCCCN)CC(=O)N(CCN)CC(=O)N(CC(N)=O)C1CCCCC1)C1CCCCC1 [Compound 7] (X2-[Gly(N-cHex)][Nlys][Gly(N-2-aminoethyl)][Gly(N-cHex)]-NH2)	162 ± 29 (≈ 201 µM)	
1.56 to 3.13	CCCCCCCCCCCCCNCC(=O)N(CC(=O)N(CCCCN)CC(=O)N(CCN)CC(=O)N(CC(N)=O)c1ccc2c(c1)CCC2)c1ccc2c(c1)CCC2 [Compound 22]	91 ± 4 (≈ 109 µM)	
3.13 to 6.25	CCCCCCCCCCCCCNCC(=O)N(CC(=O)N(CCCCN)CC(=O)N(CCN)CC(=O)N(CC(N)=O)Cc1ccco1)Cc1ccco1 [Compound 24] (H-[N(tridecyl)Gly][NFurfurylGly][Nlys][Gly(N-2-aminoethyl)][NFurfurylGly]-NH2)	143 ± 94 (≈ 188 µM)	
1.56 to 3.13	CCCCCCCCCCCCCNCC(=O)N(CC(=O)N(CCCCN)CC(=O)N(CCN)CC(=O)N(CC(N)=O)Cc1cccs1)Cc1cccs1 [Compound 25] (H-[N(tridecyl)Gly][N(2-thienylmethyl)Gly][Nlys][Gly(N-2-aminoethyl)][N(2-thienylmethyl)Gly]-NH2)	154 ± 47 (≈ 195 µM)	
